According to patent publication US6780866B2, “Analgesic composition and method” (priority 2001, dated 2004):
Several values for one entry are separate records, joined by “and”; a condition that tells them apart may be missing. Equal entries are not always repeated.

What was measured:
[1] = test system: formalin-induced inflammatory pain; set-up: species or system Wistar male rats; conditions: rat, in vivo
[2] = test system: heat-induced tail-flick (nociceptive pain); set-up: species or system Kunming mice; conditions: mouse, in vivo
Experimental: 320 screened mice, half male and half female, were randomly divided into 16 groups. They were not given food, only water 12 hours prior to dosing.
The heat tail flick analgesia meter includes a heat source consisting of a 12 V, 50 watt, 8.75 mm projector lamp. The light beam from the heat source was focused and directed to a point on the tail of a mouse being tested, having a distance of 1-2 mm plus ⅓ of the tail length to the tail end.
The test drugs were given intramuscularly. […] The tail-flick latencies, which were assessed in response to a noxious heat stimulus, i.e., the response time from applying radiant heat on the dorsal surface of the tail to the occurrence of tail flick, were measured and recorded at 15, 30, 45, 60, 90, 120, 150, 180 min. after dosing. For each measurement, three readings were made consecutively one minute apart, and their average was recorded as the latency. The testing on one animal would be terminated when tail-flick was not observed within 20 seconds, and the latency would be recorded as 20 seconds. The pain inhibition rate was calculated according to the following formula for the purpose of assessing the analgesia potency: […]
The results were processed with SPSS, a statistical software provided by SPSS, Inc. of Chicago, Ill., USA. Half effective dose (ED50) and half inhibition dose (ID50) were calculated with the probit method.

[3] = test system: formalin-induced inflammatory pain; conditions: rat, in vivo; cited from earlier work
pain = conditions: in vivo; cited from earlier work

Row | Structure (SMILES) | ID50 of morphine [1] [mg/kg] | ED95 of morphine [2] | ID50 of morphine [2] [mg/kg] | Inhibition rate (%) ([1]; 3 mg/kg) | Pain reaction score ([1]; 3 mg/kg) | Inhibition rate (%) ([2]; 3 mg/kg) | Latency after dosing ([2]; 3 mg/kg) | inhibition [3] [%] | analgesic potency relative to morphine (pain)
1 | CN1CC[C@]23c4c5ccc(O)c4O[C@H]2[C@@H](O)C=C[C@H]3[C@H]1C5.Cl [Morphine, Morphine hydrochloride] | 2.30 | 0.77 | 0.33 |  |  |  |  |  | 
2 | N=C1NC(O)C2C3OC4(O)OC(C(O)C2(N1)C4O)C3(O)CO (stereo not drawn) [TTX, octahydro-12-(hydroxymethyl)-2-imino-5,9:7,10a-dimethano-10aH-[1,3]dioxocino[6,5-d]pyrimidine-4,7,10,11,12-pentol] |  |  |  | 32.9% and 11.6% | 169.1 ± 47.2 and 223.0 ± 58.3 | 5.44% and 12.06% | 5.88 ± 1.00 and 6.04 ± 0.76 | 71.7 | about 3,000 times
